In paper PMC11617653, “Macrocyclic Inhibitors Targeting the Prime Site of the Fibrinolytic Serine Protease Plasmin” (Chemmedchem, 2024):
Several values for one entry are separate records, joined by “and”; a condition that tells them apart may be missing. Equal entries are not always repeated. Where two headings read alike, the source gives them in different places. One block for each molecule: values may come before it.

How the values were obtained:
Type in all cases: biochemical
thrombin = thrombin (Homo sapiens, UniProt P00734); test: Selectivity: inhibition of thrombin; settings: deduced from pre-assays with only three inhibitor concentrations; read-out: Thrombin K i
Description: (§1) For these three proteases a selectivity index (SI=K i(protease)/K i(plasmin)) was calculated, which is provided in brackets after the inhibition constants (Table 3).
(§2) The measurements with the related trypsin‐like serine proteases trypsin, plasma kallikrein, factor XIa, thrombin, activated protein Ca and factor Xa used in selectivity studies were performed as described previously.[11, 12]

factor Xa (fXa) = factor Xa (fXa) (Homo sapiens, UniProt P00742); test: Selectivity: inhibition of factor Xa; settings: deduced from pre-assays with only three inhibitor concentrations; read-out: fXa K i
factor Xa (fXa), sequence (P00742 41-179): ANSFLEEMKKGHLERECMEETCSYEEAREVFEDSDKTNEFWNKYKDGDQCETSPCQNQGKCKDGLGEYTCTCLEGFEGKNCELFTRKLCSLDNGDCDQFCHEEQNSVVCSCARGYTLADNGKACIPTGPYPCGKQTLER
factor Xa (fXa), sequence (P00742 235-488): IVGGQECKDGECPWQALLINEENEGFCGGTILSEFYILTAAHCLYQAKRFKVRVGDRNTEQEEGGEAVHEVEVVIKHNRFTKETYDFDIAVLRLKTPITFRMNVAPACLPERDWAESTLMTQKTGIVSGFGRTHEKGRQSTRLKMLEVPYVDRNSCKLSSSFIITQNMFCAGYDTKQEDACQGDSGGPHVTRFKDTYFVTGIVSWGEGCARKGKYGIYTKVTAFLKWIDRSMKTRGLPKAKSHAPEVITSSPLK
Description: as §1, §2

[1] = target: activated protein C (aPC) (Homo sapiens, UniProt P04070); test: Selectivity: inhibition of activated protein C; settings: deduced from pre-assays with only three inhibitor concentrations; read-out: aPC K i
activated protein C (aPC), sequence (P04070 43-197): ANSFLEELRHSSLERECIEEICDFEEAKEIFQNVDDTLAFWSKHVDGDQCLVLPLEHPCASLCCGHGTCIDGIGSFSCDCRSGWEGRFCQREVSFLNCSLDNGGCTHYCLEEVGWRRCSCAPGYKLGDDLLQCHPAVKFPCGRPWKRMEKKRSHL
activated protein C (aPC), sequence (P04070 212-461): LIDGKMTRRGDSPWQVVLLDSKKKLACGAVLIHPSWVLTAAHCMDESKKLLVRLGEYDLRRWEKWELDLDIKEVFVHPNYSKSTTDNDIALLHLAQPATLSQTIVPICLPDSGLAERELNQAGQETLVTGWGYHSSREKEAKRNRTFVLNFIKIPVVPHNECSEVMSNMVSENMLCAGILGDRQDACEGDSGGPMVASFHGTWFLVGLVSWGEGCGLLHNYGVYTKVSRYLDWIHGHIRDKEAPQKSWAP
Description: as §1, §2

human plasmin = target: T1, human plasmin (Homo sapiens, UniProt P00747); test: Inhibition of human plasmin, fluorogenic substrate Mes-DArg-Phe-Arg-AMC
T1 construct: purchased Calbiochem
T1 sequence (P00747 581-810): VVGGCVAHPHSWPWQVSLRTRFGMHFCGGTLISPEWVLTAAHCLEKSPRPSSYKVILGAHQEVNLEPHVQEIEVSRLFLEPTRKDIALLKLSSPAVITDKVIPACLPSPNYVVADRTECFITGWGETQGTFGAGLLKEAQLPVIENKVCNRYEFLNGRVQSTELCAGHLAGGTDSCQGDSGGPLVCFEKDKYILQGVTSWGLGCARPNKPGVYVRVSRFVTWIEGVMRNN
T1 sequence (P00747 97-580): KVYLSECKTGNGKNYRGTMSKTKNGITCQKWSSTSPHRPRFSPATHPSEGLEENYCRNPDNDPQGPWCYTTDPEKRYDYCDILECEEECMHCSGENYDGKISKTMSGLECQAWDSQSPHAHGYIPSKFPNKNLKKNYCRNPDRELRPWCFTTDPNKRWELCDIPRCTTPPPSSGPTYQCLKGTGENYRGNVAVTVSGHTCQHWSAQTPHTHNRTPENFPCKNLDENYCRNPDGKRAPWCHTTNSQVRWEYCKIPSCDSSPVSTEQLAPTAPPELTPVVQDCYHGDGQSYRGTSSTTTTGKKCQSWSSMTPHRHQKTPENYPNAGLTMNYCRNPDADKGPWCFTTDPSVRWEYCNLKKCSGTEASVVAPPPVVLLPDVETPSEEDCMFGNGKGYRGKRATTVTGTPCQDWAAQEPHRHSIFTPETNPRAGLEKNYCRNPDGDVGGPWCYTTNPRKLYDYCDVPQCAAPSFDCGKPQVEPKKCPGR
Description: All inhibitors prepared in this study act as reversible competitive plasmin inhibitors, their K i values were calculated by fitting the steady‐state velocities as function of the inhibitor concentrations using equation 1. 4‐aminophenylalanine (Phe(4‐NH2)) was incorporated as P1’ residue in the first inhibitor series, which enabled a macrocyclization via amide bond formation from its side chain amino group using various linker segments and P2’ residues (Table 1). […] The improved potency of SFTI‐1 analogues with basic P2’ residues[9] stimulated the incorporation of Arg in that position leading to inhibitor 4 with a slightly stronger inhibitory potency. A significant improvement could be achieved when using 3‐ or 4‐aminophenylacetic acid as P2’ group in combination with elongated linker residues (5‐6). […] However, inhibitor 9 is a twofold stronger plasmin inhibitor compared to its analogue 8.
For these inhibitors the steady‐state velocities were calculated by fitting the progress curves to equation 2 providing an additional apparent first‐order rate constant k obs for each curve. The steady‐state rates were used for K i determination with equation 1 and the k obs values for the calculation of the association rate constants k on according to equation 3. The dissociation rate constant k off was calculated from the known K i and k on values using equation 4. The enzyme kinetic evaluation of slow‐binding inhibitors of plasmin has already been described in detail in our two previous publications.[11, 12]
All measurements were conducted as triplicates in black 96‐well FluoroNunc MaxiSorp plates (Nunc, Langenselbold, Germany) and suitable fluorogenic substrates at room temperature. […] Each well contained a total volume of 180 μL consisting of 100 μL of inhibitor dissolved in buffer, 40 μL of the substrate Mes‐DArg‐Phe‐Arg‐AMC[11] (100 μM in assay, KM=16.1 μM) dissolved in water and 40 μL of plasmin solution (0.27 nM in assay). The following equations were used for the enzyme kinetic analysis as described in the results section and in our previous publications.[11, 12] (1) [drawing 71] (2) [drawing 72] (3) [drawing 73] (4) [drawing 74]

plasma kallikrein (PK) = plasma kallikrein (PK) (Homo sapiens, UniProt P03952); test: Selectivity: inhibition of plasma kallikrein; settings: for PK selectivity index K i(protease)/Ki(plasmin): in brackets; for Ki: read-out: PK K i
plasma kallikrein (PK), sequence (P03952 391-638): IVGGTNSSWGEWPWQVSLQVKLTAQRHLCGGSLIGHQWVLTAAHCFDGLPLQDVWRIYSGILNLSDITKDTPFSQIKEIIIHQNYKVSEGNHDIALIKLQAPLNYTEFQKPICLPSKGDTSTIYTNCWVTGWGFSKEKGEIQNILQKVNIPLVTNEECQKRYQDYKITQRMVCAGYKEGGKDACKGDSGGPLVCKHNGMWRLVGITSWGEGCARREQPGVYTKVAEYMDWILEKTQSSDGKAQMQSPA
plasma kallikrein (PK), sequence (P03952 20-390): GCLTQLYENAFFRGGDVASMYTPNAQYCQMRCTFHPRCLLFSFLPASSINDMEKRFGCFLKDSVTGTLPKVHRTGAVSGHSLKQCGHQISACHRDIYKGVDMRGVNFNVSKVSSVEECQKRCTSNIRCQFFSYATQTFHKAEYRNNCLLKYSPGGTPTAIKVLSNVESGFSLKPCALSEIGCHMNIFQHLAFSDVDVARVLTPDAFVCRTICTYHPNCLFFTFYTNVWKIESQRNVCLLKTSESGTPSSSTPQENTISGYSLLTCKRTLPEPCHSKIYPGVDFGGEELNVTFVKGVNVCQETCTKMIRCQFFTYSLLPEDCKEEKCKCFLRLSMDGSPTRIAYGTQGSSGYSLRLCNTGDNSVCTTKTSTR
Description: as §1, §2

factor XIa (fXIa) = factor XIa (fXIa) (Homo sapiens, UniProt P03951); test: Selectivity: inhibition of factor XIa; settings: for fXIa selectivity index K i(protease)/Ki(plasmin): in brackets; for Ki: read-out: fXIa K i
factor XIa (fXIa), sequence (P03951 19-387): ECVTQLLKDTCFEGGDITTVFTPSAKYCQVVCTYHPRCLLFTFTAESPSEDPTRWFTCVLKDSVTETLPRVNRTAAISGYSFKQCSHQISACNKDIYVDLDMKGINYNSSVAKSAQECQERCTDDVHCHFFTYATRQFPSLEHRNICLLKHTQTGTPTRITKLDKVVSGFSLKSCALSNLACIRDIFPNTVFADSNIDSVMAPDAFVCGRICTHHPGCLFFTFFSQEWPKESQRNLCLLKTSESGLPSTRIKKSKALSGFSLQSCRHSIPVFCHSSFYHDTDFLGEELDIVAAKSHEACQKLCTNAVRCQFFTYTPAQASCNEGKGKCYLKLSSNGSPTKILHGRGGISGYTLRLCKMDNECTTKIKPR
factor XIa (fXIa), sequence (P03951 388-625): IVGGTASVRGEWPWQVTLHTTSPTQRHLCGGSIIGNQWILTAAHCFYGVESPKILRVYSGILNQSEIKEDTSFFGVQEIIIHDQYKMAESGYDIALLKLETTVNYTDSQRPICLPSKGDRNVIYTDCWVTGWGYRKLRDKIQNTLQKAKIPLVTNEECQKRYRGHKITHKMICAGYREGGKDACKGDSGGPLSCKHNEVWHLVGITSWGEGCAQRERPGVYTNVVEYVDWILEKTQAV
Description: as §1, §2

[2] = K i (nM), inhibition of plasmin, series two, substituted Bpa in P1', and acyclic analogues, steady-state velocities, equation 1
[3] = Plasmin K i, Table 3 selectivity

- Ki (human plasmin; [2]): 35.7 ± 1.1 nM
SMILES: Cc1ccc2cc1NC(=O)CN1CCN(CC1)C(=O)Cc1ccc(cc1)NC(=O)[C@@H](NC(=O)[C@H]1CC[C@H](CN)CC1)Cc1ccc-2cc1 [inhibitor 38]

- Ki (human plasmin; [2]): 26.9 ± 0.5 nM
SMILES: Cc1ccc2cc1NC(=O)CNC(=O)CCCCNC(=O)Cc1cccc(c1)NC(=O)[C@@H](NC(=O)[C@H]1CC[C@H](CN)CC1)Cc1ccc-2cc1 [inhibitor 39]

- Ki (human plasmin; [2]): 20.6 ± 0.5 nM
SMILES: Cc1ccc2cc1NC(=O)CNC(=O)CCNC(=O)Cc1cccc(c1)NC(=O)[C@@H](NC(=O)[C@H]1CC[C@H](CN)CC1)Cc1ccc-2cc1 [inhibitor 41]

- Ki (human plasmin; [2]): 284 ± 24 nM
SMILES: Cc1ccc2cc1NC(=O)CNC(=O)CCCNC(=O)Cc1cccc(c1)CNC(=O)[C@@H](NC(=O)[C@H]1CC[C@H](CN)CC1)Cc1ccc-2cc1 [inhibitor 42]

- Ki (human plasmin; [2]): 5.14 ± 0.27 nM
SMILES: Cc1ccc2cc1NC(=O)CNC(=O)CCCCNC(=O)c1ccc3cc(ccc3c1)NC(=O)[C@@H](NC(=O)[C@H]1CC[C@H](CN)CC1)Cc1ccc-2cc1 [inhibitor 43]

- Ki (human plasmin; read-out: K i (nM), inhibition of plasmin, series two, substituted Bpa in P1', and acyclic analogues, steady-state velocities, equation 1): 10.3 ± 0.2 nM
SMILES: Cc1ccc2cc1NC(=O)CNC(=O)CCCNC(=O)c1ccc3cc(ccc3c1)NC(=O)[C@@H](NC(=O)[C@H]1CC[C@H](CN)CC1)Cc1ccc-2cc1 [inhibitor 44]

- Ki (human plasmin; [2]): 86.1 ± 6.6 nM
SMILES: Cc1ccc(-c2ccc(C[C@H](NC(=O)[C@H]3CC[C@H](CN)CC3)C(=O)Nc3ccc(CC(=O)NCCCC(=O)NCC(=O)O)cc3)cc2)cc1N [inhibitor 46]

- Ki (human plasmin; [2]): 65.1 ± 1.7 nM
SMILES: Cc1ccc(-c2ccc(C[C@H](NC(=O)[C@H]3CC[C@H](CN)CC3)C(=O)Nc3ccc(CC(=O)NCCCC(=O)NCC(N)=O)cc3)cc2)cc1N [inhibitor 47]

More lines, now with the values behind:

SMILES: Cc1ccc2cc1NC(=O)CNC(=O)CCCNC(=O)Cc1ccc(cc1)NC(=O)[C@@H](NC(=O)[C@H]1CC[C@H](CN)CC1)Cc1ccc-2cc1 [inhibitor 28]
- Ki (thrombin): > 60 µM
- Ki (factor Xa (fXa)): > 8 µM
- Ki [1]: > 35 µM
- fold stronger plasmin inhibition than acyclic analogues 46 and 47 (human plasmin): approximately 75 fold
- Ki (human plasmin; [2]): 0.83 nM and 0.832 nM
- Ki (human plasmin; [3]): 0.832 nM
- PK selectivity index K i(protease)/Ki(plasmin) (plasma kallikrein (PK)): 38
- Ki (plasma kallikrein (PK)): 0.031 ± 0.014 µM
- fXIa selectivity index K i(protease)/Ki(plasmin) (factor XIa (fXIa)): 49
- Ki (factor XIa (fXIa)): 0.041 ± 0.0032 µM

SMILES: Cc1ccc2cc1NC(=O)CNC(=O)CCCCNC(=O)Cc1ccc(cc1)NC(=O)[C@@H](NC(=O)[C@H]1CC[C@H](CN)CC1)Cc1ccc-2cc1 [inhibitor 29]
- Ki (human plasmin; [2]): 62.6 ± 2.3 nM

SMILES: Cc1ccc2cc1NC(=O)C(Cc1ccccc1)NC(=O)CCCNC(=O)Cc1ccc(cc1)NC(=O)C(NC(=O)C1CCC(CN)CC1)Cc1ccc-2cc1 (centres unmarked) [inhibitor 30]
- Ki (thrombin): > 30 µM
- Ki (factor Xa (fXa)): > 80 µM
- Ki [1]: > 5 µM
- Ki (human plasmin; [2]): 2.08 ± 0.05 nM
- Ki (human plasmin; [3]): 2.08 nM
- PK selectivity index K i(protease)/Ki(plasmin) (plasma kallikrein (PK)): 30
- Ki (plasma kallikrein (PK)): 0.06 ± 0.012 µM
- fXIa selectivity index K i(protease)/Ki(plasmin) (factor XIa (fXIa)): 23
- Ki (factor XIa (fXIa)): 0.047 ± 0.002 µM

SMILES: NC[C@H]1CC[C@H](C(=O)N[C@H]2Cc3ccc(cc3)-c3ccc(C(=O)Nc4ccccc4)c(c3)NC(=O)CNC(=O)CCCNC(=O)Cc3ccc(cc3)NC2=O)CC1 [inhibitor 32]
- Ki (thrombin): > 25 µM
- Ki (factor Xa (fXa)): > 5 µM
- Ki [1]: > 20 µM
- Ki (human plasmin; [2]): 1.46 ± 0.07 nM
- Ki (human plasmin; [3]): 1.46 nM
- PK selectivity index K i(protease)/Ki(plasmin) (plasma kallikrein (PK)): 11
- Ki (plasma kallikrein (PK)): 0.015 ± 0.001 µM
- fXIa selectivity index K i(protease)/Ki(plasmin) (factor XIa (fXIa)): 4
- Ki (factor XIa (fXIa)): 0.0053 ± 0.0014 µM

SMILES: CC(C)NC(=O)c1ccc2cc1NC(=O)CNC(=O)CCCNC(=O)Cc1ccc(cc1)NC(=O)C(NC(=O)C1CCC(CN)CC1)Cc1ccc-2cc1 [inhibitor 33, (S)‐4‐((1r,4S)‐4‐(aminomethyl)cyclohexane‐1‐carboxamido)‐N‐isopropyl‐5,9,14,17‐tetraoxo‐6,10,15,18‐tetraaza‐1(1,3),2,7(1,4)‐tribenzenacyclooctadecaphane‐14‐carboxamide]
- Ki (thrombin): > 45 µM
- Ki (factor Xa (fXa)): > 10 µM
- Ki [1]: > 35 µM
- Ki (human plasmin; [2]): 0.52 nM and 0.524 nM
- Ki (human plasmin; [3]): 0.524 nM
- PK selectivity index K i(protease)/Ki(plasmin) (plasma kallikrein (PK)): 21
- Ki (plasma kallikrein (PK)): 0.0094 ± 0.0021 µM
- fXIa selectivity index K i(protease)/Ki(plasmin) (factor XIa (fXIa)): 18
- Ki (factor XIa (fXIa)): 0.0081 ± 0.0016 µM

SMILES: Cc1ccc2cc1NC(=O)[C@H](N)CCCCNC(=O)Cc1ccc(cc1)NC(=O)[C@@H](NC(=O)[C@H]1CC[C@H](CN)CC1)Cc1ccc-2cc1 [inhibitor 34]
- Ki (human plasmin; [2]): 36.5 ± 0.7 nM

SMILES: Cc1ccc2cc1NC(=O)[C@@H](N)CCCCNC(=O)Cc1ccc(cc1)NC(=O)[C@@H](NC(=O)[C@H]1CC[C@H](CN)CC1)Cc1ccc-2cc1 [inhibitor 35]
- Ki (human plasmin; [2]): 29.8 ± 1.6 nM

SMILES: Cc1ccc2cc1NC(=O)CCCN1CCN(CC1)C(=O)Cc1ccc(cc1)NC(=O)[C@@H](NC(=O)[C@H]1CC[C@H](CN)CC1)Cc1ccc-2cc1 [inhibitor 36]
- Ki (human plasmin; [2]): 112 ± 6 nM

SMILES: Cc1ccc2cc1NC(=O)CCN1CCN(CC1)C(=O)Cc1ccc(cc1)NC(=O)[C@@H](NC(=O)[C@H]1CC[C@H](CN)CC1)Cc1ccc-2cc1 [inhibitor 37]
- Ki (human plasmin; [2]): 13 ± 0.2 nM
